# Target: T1, human PAH with the R408W mutation (Homo sapiens, UniProt P00439, R408W)
# T1 construct: expressed in transfected cells
# T1 sequence (P00439 1-452 R408W): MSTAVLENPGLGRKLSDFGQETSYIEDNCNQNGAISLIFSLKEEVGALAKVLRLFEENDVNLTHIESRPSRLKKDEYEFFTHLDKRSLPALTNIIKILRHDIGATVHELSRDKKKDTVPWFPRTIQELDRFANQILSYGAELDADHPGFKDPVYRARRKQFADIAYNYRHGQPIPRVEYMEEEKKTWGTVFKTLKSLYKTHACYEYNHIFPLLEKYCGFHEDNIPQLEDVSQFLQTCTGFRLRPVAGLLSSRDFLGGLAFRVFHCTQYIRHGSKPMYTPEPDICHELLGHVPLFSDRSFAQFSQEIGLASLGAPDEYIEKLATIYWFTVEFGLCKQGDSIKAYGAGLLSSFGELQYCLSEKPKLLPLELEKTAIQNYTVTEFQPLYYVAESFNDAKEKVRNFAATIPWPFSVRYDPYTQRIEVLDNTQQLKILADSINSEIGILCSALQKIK
# Assay: Cell Based Phenylalanine Flux Assay
# Details: A375 cells expressing human R408W PAH; 24 hrs compound incubation; 13C-Tyrosine by LC-MS; average where tested multiple times; read-out: AC50
row,SMILES,AC50 [nM]
1,"O=C(c1ocnc1C1CC1)N1CCCC2NC=NC2[C@H]1c1nc2ccccc2s1 (stereo partly drawn) [Example 2167, ((4S)-4-(benzo[d]thiazol-2-yl)-3a,4,6,7,8,8a-hexahydroimidazo[4,5-c]azepin-5(1H)-yl)(4-cyclopropyloxazol-5-yl)methanone]",< 500
2,O=C(c1ccnn1C(F)F)N1CCc2[nH]cnc2[C@H]1c1nc2c(F)cccc2s1 [Example 1739],< 500
3,"Cn1ncnc1C(=O)N1CCc2[nH]cnc2[C@@H]1c1nc2ccccc2s1 [Example 1814, (R)-(4-(benzo[d]thiazol-2-yl)-6,7-dihydro-1H-imidazo[4,5-c]pyridin-5(4H)-yl)(1-methyl-1H-1,2,4-triazol-5-yl)methanone]",> 5000
4,"CN(C)CCn1nccc1C(=O)N1CCc2[nH]cnc2[C@H]1c1nc2c(F)cccc2s1 [Example 1761, (S)-(1-(2-(dimethylamino)ethyl)-1H-pyrazol-5-yl)(4-(4-fluorobenzo[d]thiazol-2-yl)-6,7-dihydro-1H-imidazo[4,5-c]pyridin-5(4H)-yl)methanone]",500 to 1000
5,"c1cnc(N2CCc3[nH]cnc3[C@@H]2c2nc3ccccc3s2)nc1 [Example 1437, (R)-2-(5-(pyrimidin-2-yl)-4,5,6,7-tetrahydro-1H-imidazo[4,5-c]pyridin-4-yl)benzo[d]thiazole]",1000 to 5000
6,Cn1cc(-c2ncc(C(=O)N3CCc4[nH]cnc4[C@H]3c3nc4ccccc4s3)s2)c(C2CC2)n1 [Example 1385],< 500
7,"O=C(CCc1nccs1)N1CCc2[nH]cnc2[C@@H]1c1nc2c(F)cccc2s1 [Example 1078, (R)-1-(4-(4-fluorobenzo[d]thiazol-2-yl)-6,7-dihydro-1H-imidazo[4,5-c]pyridin-5(4H)-yl)-3-(thiazol-2-yl)propan-1-one]",> 5000
8,CC(C)n1ncnc1C(=O)N1CCc2[nH]cnc2[C@H]1c1nc2ccccc2s1 [Example 2037],< 500
9,"Cc1ncoc1C(=O)N1CCCc2[nH]cnc2[C@H]1c1nc2ccccc2s1 [Example 2129, (S)-(4-(benzo[d]thiazol-2-yl)-7,8-dihydroimidazo[4,5-c]azepin-5(1H,4H,6H)-yl)(4-methyloxazol-5-yl)methanone]",1000 to 5000
10,O=C(c1oc(-c2ccccn2)nc1C(F)F)N1CCc2[nH]cnc2[C@H]1c1nc2ccccc2s1 [Example 1795],< 500
11,"O=C(CCC1CC1)N1CCc2[nH]cnc2[C@H]1c1nc2cc(F)ccc2s1 [Example 1075, (S)-3-cyclopropyl-1-(4-(5-fluorobenzo[d]thiazol-2-yl)-6,7-dihydro-1H-imidazo[4,5-c]pyridin-5(4H)-yl)propan-1-one]",500 to 1000
12,"O=C(CC1CC1)N1CCc2[nH]cnc2[C@@H]1c1nc2ccc(Br)cc2s1 [Example 1147, (R)-1-(4-(6-bromobenzo[d]thiazol-2-yl)-6,7-dihydro-1H-imidazo[4,5-c]pyridin-5(4H)-yl)-2-cyclopropylethanone]",500 to 1000
13,Cn1cc(-c2nc(C(F)F)c(C(=O)N3CCc4[nH]cnc4[C@H]3c3nc4ccccc4s3)o2)cn1 [Example 1799],< 500
14,"O=C(c1ncn2ccccc12)N1CCc2[nH]cnc2[C@H]1c1nc2cc(F)ccc2s1 [Example 1105, (S)-(4-(5-fluorobenzo[d]thiazol-2-yl)-6,7-dihydro-1H-imidazo[4,5-c]pyridin-5(4H)-yl)(imidazo[1,5-a]pyridin-1-yl)methanone]",500 to 1000
15,"O=C(c1ncn2ccccc12)N1CCc2[nH]cnc2[C@@H]1c1nc2cccc(F)c2s1 [Example 1267, (R)-(4-(7-fluorobenzo[d]thiazol-2-yl)-6,7-dihydro-1H-imidazo[4,5-c]pyridin-5(4H)-yl)(imidazo[1,5-a]pyridin-1-yl)methanone]",1000 to 5000
16,CC(C)n1ncc(C(=O)N2CCc3[nH]cnc3[C@H]2c2nc3c(F)cccc3s2)c1Br [Example 1953],500 to 1000
17,O=C(c1cnn(CC(F)(F)F)c1C(F)F)N1CCc2[nH]cnc2[C@H]1c1nc2c(F)cccc2s1 [Example 1975],1000 to 5000
18,"COc1ccn2ncc(C(=O)N3CCc4[nH]cnc4[C@@H]3c3nc4ccccc4s3)c2c1 [Example 1084, (R)-(4-(benzo[d]thiazol-2-yl)-6,7-dihydro-1H-imidazo[4,5-c]pyridin-5(4H)-yl)(5-methoxypyrazolo[1,5-a]pyridin-3-yl)methanone]",1000 to 5000
19,O=C(c1cnc(-c2ccccc2)o1)N1CCc2[nH]cnc2[C@H]1c1nc2ccccc2s1 [Example 1207],< 500
20,"O=C(CCc1nccs1)N1CCc2[nH]cnc2[C@@H]1c1nc2cccc(F)c2s1 [Example 1036, (R)-1-(4-(7-fluorobenzo[d]thiazol-2-yl)-6,7-dihydro-1H-imidazo[4,5-c]pyridin-5(4H)-yl)-3-(thiazol-2-yl)propan-1-one]",1000 to 5000
21,"O=C(c1oc(C2(O)CCC2)nc1C(F)(F)F)N1CCCc2[nH]cnc2[C@@H]1c1nc2ccccc2s1 [Example 2138, (R)-(4-(benzo[d]thiazol-2-yl)-7,8-dihydroimidazo[4,5-c]azepin-5(1H,4H,6H)-yl)(2-(1-hydroxycyclobutyl)-4-(trifluoromethyl)oxazol-5-yl)methanone]",1000 to 5000
22,"O=C(c1cnn2ccccc12)N1CCc2[nH]cnc2[C@@H]1c1nc2ccc(Br)cc2[nH]1 [Example 941, (R)-(4-(6-bromo-1H-benzo[d]imidazol-2-yl)-6,7-dihydro-1H-imidazo[4,5-c]pyridin-5(4H)-yl)(pyrazolo[1,5-a]pyridin-3-yl)methanone]",1000 to 5000
23,"O=C(c1nnc(-c2ccc(F)cn2)o1)N1CCc2[nH]cnc2[C@H]1c1nc2c(F)cccc2s1 [Example 1711, (S)-(4-(4-fluorobenzo[d]thiazol-2-yl)-6,7-dihydro-1H-imidazo[4,5-c]pyridin-5(4H)-yl)(5-(5-fluoropyridin-2-yl)-1,3,4-oxadiazol-2-yl)methanone]",1000 to 5000

# Same assay, conditions: A375 cells expressing human R408W PAH; 24 hrs with compound; 13C-Tyrosine by LC-MS; average where tested multiple times; read-out: AC50
row,SMILES,AC50 [nM]
1,CN(C)Cc1nc(C#N)c(C(=O)N2CCc3[nH]cnc3C2c2nc3ccccc3s2)o1 (stereo not drawn),1000 to 5000
2,Cc1nnc(C(=O)N2CCc3[nH]cnc3C2c2nc3ccc(F)cc3s2)s1 (stereo not drawn) [listing 1 of 2 here],1000 to 5000
3,O=C(Cc1cncs1)N1CCc2[nH]cnc2C1c1nc2ccccc2s1 (stereo not drawn),> 5000
4,O=C(c1nc2ccccc2s1)N1CCc2[nH]cnc2C1c1nc2ccc(F)cc2s1 (stereo not drawn),1000 to 5000
5,O=C(c1nccs1)N1CCc2[nH]cnc2C1c1nc2ccc(F)cc2[nH]1 (stereo not drawn),> 5000
6,O=C(c1ccno1)N1CCc2nc[nH]c2C1c1nc2c(F)cccc2s1 (stereo not drawn),1000 to 5000
7,CN(C)Cc1ncc(C(=O)N2CCc3[nH]cnc3C2c2nc3ccccc3s2)o1 (stereo not drawn),1000 to 5000
8,O=C(c1ocnc1CO)N1CC2(CC2)c2[nH]cnc2C1c1nc2ccccc2s1 (stereo not drawn),1000 to 5000
9,"O=C(c1ncn2ccccc12)N1CCc2[nH]cnc2[C@@H]1c1nc2ccc(F)cc2s1 (single isomer, unassigned)",> 5000
10,Cn1nc(C(N)=O)cc1C(=O)N1CCc2[nH]cnc2C1c1nc2c(F)cccc2s1 (stereo not drawn),> 5000
11,CC(C)(O)c1cc(C(=O)N2CCc3[nH]cnc3C2c2nc3c(F)cccc3s2)sn1 (stereo not drawn),> 5000
12,Cc1nnc(C(=O)N2CCc3[nH]cnc3C2c2nc3ccc(F)cc3s2)s1 (stereo not drawn) [listing 2 of 2 here],> 5000
13,CC(C)(O)c1nc(C(=O)N2CCc3[nH]cnc3C2c2nc3c(F)cccc3s2)no1 (stereo not drawn),1000 to 5000
14,O=C(c1nccs1)N1CCc2[nH]cnc2C1c1nc2cccc(F)c2[nH]1 (stereo not drawn),> 5000
15,Cc1nnc(CCC(=O)N2CCc3[nH]cnc3C2c2nc3c(F)cccc3s2)s1 (stereo not drawn),> 5000
16,O=C(c1cnn2cc(Br)ccc12)N1CCc2[nH]cnc2C1c1nc2ccc(Cl)cc2[nH]1 (stereo not drawn),1000 to 5000

# From US20250171438A1 (Agios Pharmaceuticals, Inc., priority 2022, published 2025)
